Values quoted from earlier work as cited in patent US8257742B2, “Bisphosphonates for treating endometriosis” (Yissum Research Development Company of the Hebrew …, priority 2005, dated 2012).

Tested on: endometriosis explants
Conditions: in vivo

Q: Which “regression of endometriosis explants” value does the source give for `C=CCn1c(=O)n([C@@H]2O[C@H](CO)[C@@H](O)[C@H]2O)c2nc(N)[nH]c(=O)c21` [loxoribine, Loxoribine] here?
A: Regression of endometriosis explants was observed
